From paper PMC6522914, “Benzonate derivatives of acetophenone as potent α-glucosidase inhibitors: synthesis, structure–activity relationship and mechanism” (Journal of Enzyme Inhibition and Medicinal Chemistry, 2019)
Entries after “also recorded” stand apart in the source; their conditions may differ. Read-outs that look alike come from different tables or passages of the source.

Key:
[1] = biological target: α-glucosidase (EC 3.2.1.20) (Saccharomyces cerevisiae, UniProt P53341); assay: α-Glucosidase inhibitory assay (pNPG substrate); format: biochemical; details: in vitro
Sequence of α-glucosidase (EC 3.2.1.20) (P53341 whole entry): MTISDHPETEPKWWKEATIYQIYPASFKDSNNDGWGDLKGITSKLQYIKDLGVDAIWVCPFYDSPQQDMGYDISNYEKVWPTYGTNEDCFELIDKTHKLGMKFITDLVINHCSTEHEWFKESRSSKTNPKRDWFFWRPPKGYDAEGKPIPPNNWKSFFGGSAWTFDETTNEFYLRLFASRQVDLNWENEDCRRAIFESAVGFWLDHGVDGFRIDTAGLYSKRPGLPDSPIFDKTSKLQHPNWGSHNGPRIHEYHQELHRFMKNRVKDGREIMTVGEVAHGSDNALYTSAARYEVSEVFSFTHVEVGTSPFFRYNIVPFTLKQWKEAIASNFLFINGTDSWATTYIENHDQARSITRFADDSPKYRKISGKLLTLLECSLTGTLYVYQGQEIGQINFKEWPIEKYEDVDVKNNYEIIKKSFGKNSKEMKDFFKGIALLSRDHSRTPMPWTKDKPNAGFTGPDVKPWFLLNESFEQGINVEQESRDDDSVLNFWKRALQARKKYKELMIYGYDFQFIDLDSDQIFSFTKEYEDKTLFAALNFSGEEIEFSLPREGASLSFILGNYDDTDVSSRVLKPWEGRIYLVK
Procedure: The α-glucosidase inhibitory assay was performed according to a slightly modified method previously reported[21]^,[22]. In brief, a series of reaction solutions, including a fixed amount of α-glucosidase (10 unit/mL 3.75 µL), different concentrations of inhibitors (the tested compounds or positive controls, 37.5 µL), and sodium phosphate buffer (PBS, […], 0.1 M, pH 6.8), were incubated at 37 °C for 10 min. To initiate the reaction, 112.5 µL of pNPG (6.0 mM, as a substrate) was added into the pre-incubated mixtures, and the final volume of reaction system was kept at 750 µL. The p-nitrophenol released from pNPG substrate was used as the target substance to quantify the enzymatic activity. […] The negative control was prepared by adding PBS instead of α-glucosidase, the blank was prepared by adding solvent instead of tested compounds, and the inhibition rate was calculated as the following Equation (1). (1) (ODcontrol−ODcontrol blank)−(ODtest−ODtest blank)/ODcontrol−ODcontrol blank×100%

[2] = biological target: T1, α-glucosidase (Saccharomyces cerevisiae, UniProt P53341); assay: Fluorescence quenching and van't Hoff thermodynamics; format: binding; details: for ΔG^o: van't Hoff
T1 sequence (P53341 whole entry): as above
Procedure: The steady state fluorescence emission spectra, were recorded between 300 and 500 nm at the excitation wavelength of 280 nm at three different temperatures (25, 31 and 37 °C), and both the excitation and emission slits were set at 2.5 nm. Compound 7u at different concentrations (from 0 to 6 µM) were added into the 3.0 ml solution containing a fixed amount of α-glucosidase (2μM). All of the mixtures were held for 5 min to equilibrate before measurements. The fluorescence spectra of buffer were subtracted as the background fluorescence.
(§1) The synchronous fluorescence spectra of α-glucosidase in the absence and presence of compound 7u were scanned by setting the excitation and emission wavelength intervals (Δλ) at 15 and 60 nm, respectively. To eradicate the probability of re-absorption and inner filter effects in UV absorption, all of the fluorescence data were corrected for absorption of exciting light and emitted light, based on the Equation S1[3]^,[13].

[3] = biological target: T1, α-glucosidase; assay: Kinetic analysis of inhibition type (Lineweaver–Burk / Michaelis–Menten); format: biochemical
Procedure: To further explore the inhibitory characteristic of this type of compounds, kinetic studies of the selected compound 7u were performed[3]^,[13]^,[26]. Different final concentrations (0.5, 1, 2, 4, and 8 µM) of the inhibitor 7u around the IC50 values were chosen. The concentration of α-glucosidase was kept at 1 µM, and the pNPG concentrations varied from 2.0 to 12.0 mM in the absence and presence of compound 7u. The type of inhibition was analyzed on the basis of the Michaelis–Menten constant (Km) and maximal rate (Vmax) of the enzyme. The parameters were determined via Lineweaver–Burk plots, which was obtained by plotting enzyme reaction velocity (ν) and substrate (pNPG), namely, 1/ν versus 1/[pNPG]. The secondary plot slope against [7u] was also determined. The protein concentration was determined according to the Bradford method[27] using bovine serum albumin as the standard.

[4] = biological target: T1, α-glucosidase; assay: Synchronous fluorescence spectra; format: binding; details: 7u 0–6 µM, 25 °C
Excerpt: as §1

[5] = test system: intestinal α-glucosidase; assay: Everted intestinal sleeve assay; set-up: species or system Sprague–Dawley rats
Procedure: ^1H NMR and ^13 C NMR spectra were carried out using a 500 MHz Avance spectrometer (Bruker, USA) or a Varian Mercury 400 MHz spectrometer. Chemical shifts were measured relative to the residual solvent peaks of CDCl3 with tetramethylsilane as the internal standard. High-resolution mass spectra were recorded on an AB SCIEX Triple TOF 5600+ spectrometer. The in vitro inhibitory activity and kinetic assay of α-glucosidase were measured by a microplate reader (Synergy HTX, BioTek Instruments Inc., Winooski, VT, USA). Fluorescence spectra were conducted on a spectrofluorometer (LS55, Perkin Elmer Inc., Waltham, MA, USA). […] Titration microcalorimetry measurement conducted on a Nano-ITC SV instrument (TA Instruments Ltd., UK). The surgeries were performed under anesthesia and all efforts were made to minimise animal suffering. The blood glucose levels were determined via a glucose detection kit (Robio Co., Ltd., Shanghai, China). […] The concentrations of glucose in the soaking solution and intestinal sleeve were detected using S-10 biosensor analyzer (Sieman Technology Co., Ltd., Shenzhen, China). All reaction progress was monitored by thin-layer chromatography (TLC) on silica gel GF254 (Qingdao Haiyang Chemical Co., Ltd., Qingdao, China) with ultraviolet detection. Reagents were purchased from commercial sources (Bodi Chemical Co., Ltd., Tianjin, China; Aladdin Industrial Co., Ltd., Shanghai, China), and used as received. α-Glucosidase (EC 3.2.1.20, Sigma-Aldrich Chemical, St. Louis, MO, USA); 4-nitrophenyl-α-D-glucopyranoside (pNPG) (99%, Macklin Biochemical Co., Ltd, Shanghai, China).
After a 12-h fasting, the jejunum of 200–220 g Sprague-Dawley […] was obtained. Then the proximal jejunum was flushed with pre-cold isotonic saline (4 °C) and cut into 3 cm-long segments. Each segment was weighed separately, everted and both ends were secured by tying knots. Then the sleeves were incubated (90 min at 37 °C) in mammalian Ringer’s solution containing sucrose (1.5 mM) and an appropriate concentration of the inhibitor (0.17 mM). Following the incubation, the concentrations of glucose in the soaking solution and intestinal sleeves were tested with biosensor analyzer (S-10). The total glucose concentration was calculated as glucose per gram of gut weight (mmol/g).

[6] = biological target: T1, α-glucosidase; assay: Circular dichroism measurement; format: binding; details: 7u 0–4 µM, α-glucosidase 2 µM, 25 °C
Procedure: The CD measurements of α-glucosidase in the presence of compound 7u were conducted in far–UV region (190–250 nm), under nitrogen environment using a 1.0 mm path length cuvette. The concentration of α-glucosidase was maintained constant (2 µM) while the 7u concentration was varied as 0, 1, 2, and 4 µM. All observed CD spectra were recorded in 0.1 M PBS (pH 6.8) at 25 °C[13]^,[31].

[7] = Sucrose-loading test (postprandial blood glucose); format: in vivo, Kunming mice; details: mice, 20 mg/kg by gavage, sucrose 2.5 g/kg, 0–120 min
Procedure: The carbohydrate loading test was conducted according as Kato et al.[23] and Han et al.[24] reported, with slight modifications. Fifteen male Kunming mice (35–40 g) after an overnight fast were randomly divided into three groups (five mice per group). […] A blank control group was loaded with 0.5% CMC–Na solution only. The blood samples were collected from the mice’s tail vein at 0, 15, 30, 60, 90, and 120 min, and the blood glucose levels were determined by a glucose detection kit.

[8] = biological target: T1, α-glucosidase; assay: Isothermal titration calorimetry; format: binding; details: ITC, 25 °C
Procedure: Titration of the compound 7u into the α-glucosidase was performed at 25 °C. All the solutions were prepared in 0.1 M PBS (pH 6.8). The α-glucosidase solution (2.5μM) was placed in the 1.3 ml sample cell of the calorimeter, and the injection syringe was loaded with the solution of 7u (30μM, in 0.05% DMSO). The solution of compound 7u was titrated into the sample cell at 25 °C as a progression of 25 injections of 10μL. The time delay between each two injections was 300 s. To ensure comprehensive mixing, all the sample was stirred at a speed of 300 rpm during experiment. The control experiments included the titration of the compound 7u solution into 0.1 M PBS (pH 6.8)[33–35].

[9] = biological target: T1, α-glucosidase; details: cited from earlier work

Compound: CC(=O)c1cc(Br)c(OC(=O)CCCCBr)c(Br)c1O [7h]
- α-glucosidase inhibitory activity (in words) [1]: lost the activity

Compound: CC(=O)c1cc(Br)c(OC(=O)c2ccccc2[N+](=O)[O-])c(Br)c1O [7u]
- KSV (quenching constant) ([2]; 25 °C): 5.00 ± 0.04 × 10^4 L·mol^−1
- n (number of binding sites) ([2]; 25 °C): 1.23
- ΔG^o ([2]; 25 °C): -7.698 ± 0.014 kcal/mol
- KSV (quenching constant) ([2]; 31 °C): 4.74 ± 0.03 × 10^4 L·mol^−1
- n (number of binding sites) ([2]; 31 °C): 1.19
- ΔG^o ([2]; 31 °C): -7.488 ± 0.0072 kcal/mol
- KSV (quenching constant) ([2]; 37 °C): 4.31 ± 0.02 × 10^4 L·mol^−1
- n (number of binding sites) ([2]; 37 °C): 1.15
- ΔG^o ([2]; 37 °C): -7.28 ± 0.0048 kcal/mol
- quenching mechanism ([2]; KSV versus temperature): static quenching mechanism
- Kq ([2]; fluorescence quenching): ~10^12 L·mol^−1·s^−1
- Vmax ([3]; 7u 1 µM): 1.39 ± 0.02 µM/min
- Vmax ([3]; 7u 2 µM): 1.24 ± 0.01 µM/min
- Vmax ([3]; 7u 4 µM): 1.04 ± 0.01 µM/min
- Vmax ([3]; 7u 8 µM): 0.84 ± 0.02 µM/min
- type of inhibition ([3]; Lineweaver–Burk plot): mixed-type inhibition
- shift of maximum emission wavelength of Tyr residues ([4]; Δλ = 15 nm): No evident shift
- shift of maximum emission wavelength of Trp residues ([4]; Δλ = 60 nm): noticeable red shift (from 277.5 to 286.5 nm)
- inhibitory activity on intestinal α-glucosidase compared with acarbose ([5]; 0.17 mM): better than that of acarbose
- glucose concentration in the solution outside the intestinal sleeves ([5]; 0.17 mM inhibitor, sucrose 1.5 mM): decreased the glucose concentrations in the solution present outside the intestinal sleeves
- total concentration of glucose ([5]; 0.17 mM inhibitor, sucrose 1.5 mM, 5–90 min, versus blank): much lower than that of the blank
- glucose concentration in the intestinal sleeves ([5]; 0.17 mM inhibitor, sucrose 1.5 mM, versus blank): lower than that of blank
- CD negative bands at 209 and 220 nm [6]: both intensity of the negative bands decreased
- effect on postprandial blood glucose levels ([7]; 20 mg/kg): significantly attenuated postprandial blood glucose in mice; also recorded: obvious repressive effect on blood glucose concentrations at peaked 15 min
- ΔG [8]: –39.04 kJ·mol^−1
- ΔH [8]: -23.901 kcal/mol
- ΔS [8]: –204.50 J·mol^−1·K^−1
- ΔG ([8]; listed as 7 u): -9.331 kcal/mol
- ΔS ([8]; listed as 7 u): −204.50 J·mol^−1·K^−1

Compound: C[C@H]1O[C@H](O[C@H]2[C@H](O)[C@@H](O)[C@@H](O[C@H]3[C@H](O)[C@@H](O)C(O)O[C@@H]3CO)O[C@@H]2CO)[C@H](O)[C@@H](O)[C@@H]1N[C@H]1C=C(CO)[C@@H](O)[C@H](O)[C@H]1O (stereo partly shown) [Acarbose, acarbose, reference compound]
- effect on postprandial blood glucose levels [7]: at lower level than the model group

Compound: CC(C)=CCC/C(C)=C/Cc1c(O)cc(O)c(C(=O)/C=C/c2ccc(O)cc2)c1O [compound 1, 3′-geranylchalconaringenin]
- inhibition activity against α-glucosidase compared with acarbose ([9]; ref Sun et al. 12): superior inhibition activity against α-glucosidase than acarbose

Compound: O=c1cc(-c2ccc(O)cc2)oc2cc(O)cc(O)c12 [compound 2, apigenin]
- inhibition activity against α-glucosidase compared with acarbose ([9]; ref Zeng et al. 13): superior inhibition activity against α-glucosidase than acarbose

Compound: CC(=O)c1cc(C)c(O)cc1O [compound 3, 2,4-dihydroxy-5-methylacetophenone]
- α-glucosidase inhibitory activity (in words) [1]: considerable inhibitory activity against α-glucosidase in prescreen
